Measured values taken from article PMC7285485, “Antifungal and Antibiofilm Activities and the Mechanism of Action of Repeating Lysine-Tryptophan Peptides against Candida albicans” (Microorganisms, 2020).
Converted amounts (≈) assume the structure as drawn. Read-outs that look alike come from different tables or passages of the source. Ends that are not written are not given here. Peptide text beside a SMILES is read from it.

Experiments:
[1] = tested on: C. albicans (KCTC 7270); assay: microbe, parasite or virus in culture; type: cell-based, Candida albicans; conditions: YPD/PBS, 24 to 30 h, 28 °C, read-out: Minimum Inhibitory Concentrations
Procedure: (§1) The fungal strains C. albicans (KCTC 7270), C. catenulate (7642), C. intermidia (7234), C. rugosa (7324), C. glabrata (7219) and C. melibiosica (KCTC 7631) were cultured at 28 °C in appropriate media. Fungal cells (final concentration 2 × 10^4 cells/ mL) in 50 μL of YPD media (dextrose 2%, peptone 1% and yeast extract 0.5%) were seeded in each well of a microtiter plate containing 50 μL of two-fold serially diluted peptides in phosphate buffered saline. After incubation for 24 to 30 h at 28 °C, the lowest concentration of the peptides inhibiting the growth of the fungi was microscopically determined to be the minimum inhibitory concentrations (MICs). The effect of salt concentration on the antifungal activity of the peptides was tested by determining the MICs in the presence of NaCl and MgCl2. Fixed concentrations of NaCl (50, 100 and 150 mM) or MgCl2 (1, 2 and 5 mM) were added to the sodium phosphate buffer (pH 7.2). The effect of pH on the antifungal activity of the peptides was tested by determining peptide MICs in the presence of sodium phosphate buffer at a variety of pH values.

[2] = tested on: C. albicans (CCARM 14001); assay: microbe, parasite or virus in culture; type: cell-based, Candida albicans; conditions: fluconazole-resistant strain CCARM 14001, 24 to 30 h, 28 °C, read-out: Minimum Inhibitory Concentrations
[3] = tested on: C. albicans (CCARM 14007); assay: microbe, parasite or virus in culture; type: cell-based, Candida albicans; conditions: read-out: Minimum Inhibitory Concentrations
[4] = tested on: C. albicans (CCARM 140020); assay: microbe, parasite or virus in culture; type: cell-based, Candida albicans; conditions: read-out: Minimum Inhibitory Concentrations
[5] = tested on: C. catenulate; assay: microbe, parasite or virus in culture; type: cell-based, Candida catenulate; conditions: read-out: Minimum inhibitory concentration
Procedure: as §1

[6] = tested on: C. rugosa; assay: microbe, parasite or virus in culture; type: cell-based, Candida rugosa; conditions: read-out: Minimum inhibitory concentration
Procedure: as §1

[7] = tested on: C. melibiosica; assay: microbe, parasite or virus in culture; type: cell-based, Candida melibiosica; conditions: read-out: Minimum inhibitory concentration
Procedure: as §1

[8] = tested on: C. glabrata; assay: microbe, parasite or virus in culture; type: cell-based, Candida glabrata; conditions: read-out: Minimum inhibitory concentration
Procedure: as §1

[9] = tested on: C. intermedia; assay: microbe, parasite or virus in culture; type: cell-based, Candida intermedia; conditions: read-out: Minimum inhibitory concentration
Procedure: as §1

[10] = tested on: red blood cells; conditions: ref [35], cited from earlier work; for Hemolysis: red blood cells, 200 µM peptide
Excerpt: Furthermore, it maintained its antifungal activity in physiological salt concentrations and at low pH values.

[11] = tested on: HaCaT (human keratinocyte) cells; assay: Cytotoxicity, MTT assay; type: cell-based; conditions: 24 h
Procedure: We examined the cytotoxic effects of the peptides using HaCaT (human keratinocyte) cells, which were cultured in Dulbecco’s modified Eagle medium (DMEM) supplemented with antibiotics (100 U/mL penicillin, 100 µg/mL streptomycin) and 10% fetal calf serum at 37 °C in a humidified chamber with atmosphere containing 5% CO2. To measure viable cells and growth inhibition, an MTT colorimetric assay was used. A total of 4 × 10^3 cells was seeded per well into a 96-well plate incubated at 37 °C for 24 h. The next day, cells from plates were treated with various concentrations of the tested peptides. After 24 h incubation at 37 °C, MTT (10 μL) was added at a concentration of 5 mg/mL to each well. The culture supernatants were discarded after a further 4 h, and the remaining precipitate was dissolved by the addition of 100 μL of DMSO into the wells. Absorbance was then measured at a wavelength of 570 nm using an EL800 reader (Bio-Tek instruments, Inc., Winooski, VT, USA).

[12] = Calcein leakage from eukaryotic membrane mimetic liposomes; conditions: 2.5 μM lipid, peptide 0.0–0.25 μΜ, 25 min, 25 °C; 100% = 0.1% Triton X-100
Procedure: (§2) Calcein-entrapped LUVs composed of PE–PC–PI–ergosterol (5:4:1:2, w/w/w/w) or PC–CH–SM (1:1:1, w/w/w) were prepared by mixing the dried lipid in buffer solution (containing 70 mM calcein, PBS, pH 7.4). The suspension was freeze-thawed in liquid nitrogen for nine cycles and then extruded through two stacked […] pore-size polycarbonate filters for 16 times using an Avanti Mini-Extruder (Avanti Polar Lipids Inc., Alabaster, AL, USA). Vesicles containing entrapped calcein were separated from free calcein by gel filtration chromatography on a Sephadex G-50 column. Entrapped LUVs in a suspension containing 2.5 μM lipids were then incubated with various concentrations of the peptide (0.0–0.25 μΜ) for 25 min. The release of calcein fluorescence was followed using a spectrofluorometer (Perkin-Elmer LS55, Mid Glamorgan, UK) with appropriate wavelengths (excitation, 480 nm; and emission, 520 nm). […] Spontaneous leakage was determined to be negligible on this timescale. […] The percentage of calcein release was calculated according to the following equation [41]:Release (%) = 100 × (F − Fo)/(Ft − Fo) (Ex. 480 nm and Em. 520 nm)(1) where F represent the fluorescence intensity before the addition of the detergent, Ft represents the fluorescence intensity after the addition of the detergent and Fo represents the fluorescence of the intact vesicles.

[13] = Calcein leakage from fungal membrane mimetic liposomes; conditions: 2.5 μM lipid, peptide 0.0–0.25 μΜ, 25 min, 25 °C; 100% = 0.1% Triton X-100; highest P/L ratio tested
Procedure: as §2

[14] = tested on: C. albicans; assay: SYTOX Green membrane permeabilization; type: cell-based, Candida albicans; conditions: 2 × 10^7 cells/mL, 1 µM SYTOX Green, followed for 120 min
Procedure: Membrane permeabilization of C. albicans was studied using the fluorescent dye SYTOX Green (Molecular Probes, Eugene, OR, USA). Fungal cells were grown to mid-logarithmic growth phase then centrifuged, washed and resuspended in PBS. Cells were suspended in PBS (2 × 10^7 cells/mL) and incubated with 1 µM SYTOX Green for 15 min in the dark prior to the influx assay. At 2–3 min after initiating data collection, 1/2× or 1× MIC peptides were added to the cell suspensions. Due to the binding of the dye to intracellular DNA, the increases in SYTOX Green fluorescence was measured for 120 min (excitation and emission wavelengths were 485 nm and 520 nm, respectively). Lysis of the cells in Triton X-100 (0.1%) or melittin gave maximum fluorescence.

[15] = tested on: C. albicans; assay: Fluorescence microscopy of PI cell permeabilization; type: cell-based, Candida albicans; conditions: 8 μM KW4 or 4 μM melittin, 10, 20 and 30 min, 28 °C
Procedure: The cell permeability was monitored using the DNA-staining fluorescent probe PI as previously described. For this experiment, C. albicans cells were grown in YPD broth with shaking at 200 rpm overnight at 28 °C. Cells were harvested by centrifugation (4000 rpm for 10 min), washed and suspended in PBS to yield 2 × 10^6 cells/mL; 100 μL of C. albicans suspensions (2 × 10^6 cells/mL) were incubated with 5 μL from respective peptide aqueous stock solutions to yield a final peptide concentration of 8 μM KW4 peptide or 4 μM melittin (as a control peptide) for 10, 20 and 30 min at 28 °C. Next, PI was added to each sample at a final concentration of 1 μg/mL and the plate was incubated at 28 °C for 5 min. The effects of the peptides on C. albicans were visualized by the EVOS FL Auto 2 imaging system (Invitrogen, Waltham, MA, USA). Cells without added peptide served as a control.

[16] = tested on: RNA obtained from C. albicans; assay: RNA gel retardation assay; type: binding, Candida albicans; conditions: Supplementary Figure S2
Procedure: Briefly, RNA was extracted from C. albicans using the TRI reagent (Molecular Research Center, Cincinnati, OH, USA) according to the manufacturer’s instructions. Purified RNA was collected and resuspended in RNAse-free water. Then, the yeast RNA (10 µg) was mixed with peptide at different concentrations, 2.5–30 µg in 15 µL of 10 mM Tris, 1 mM EDTA buffer (pH 8.0). After 10 min incubation at room temperature, the solution was subjected to electrophoresis on a 1% agarose gel in Tris Borate EDTA (TBE) buffer. Gel retardation was visualized under UV illumination using a Bio-Rad Gel Documentation system.

For OC(Cn1cncn1)(Cn1cncn1)c1ccc(F)cc1F [Fluconazole, fluconazole, reference compound], the MIC ([1]; Candida albicans, KCTC7270, 2 × 10^4 cells/mL) was 16 µM, the MIC ([2]; Candida albicans, CCARM14001) was > 128 µM and the MIC ([3]; Candida albicans, CCARM14007, fluconazole-resistant strain CCARM 14007, 24 to 30 h, 28 °C) was > 128 µM. The MIC ([4]; Candida albicans, CCARM140020, fluconazole-resistant strain CCARM 140020, 24 to 30 h, 28 °C) was > 128 µM, the MIC ([5]; Candida, C. catenulate) was 16 µM and the MIC ([6]; Diutina rugosa, C. rugosa) was 16 µM. It also gave an MIC ([7]; Helenozyma melibiosica, C. melibiosica) of 16 µM, an MIC ([8]; Nakaseomyces glabratus, C. glabrata) of 8 µM and an MIC ([9]; Sungouiella intermedia, C. intermedia) of 16 µM.
With NCCCC[C@H](NC(=O)[C@H](Cc1c[nH]c2ccccc12)NC(=O)[C@@H](N)CCCCN)C(=O)N[C@@H](Cc1c[nH]c2ccccc12)C(N)=O [KW2, KWKW-NH2] (H-KWKW-NH2) the MIC [2] was >128 µM, the MIC [5] was > 128 µM and the MIC [6] was > 128 µM. For the same molecule, the MIC [7] was > 128 µM, the MIC [8] was > 128 µM and the MIC [9] was > 128 µM. For the same molecule, the Hemolysis [10] was 0%.
For KWKWKW-NH2 [KW3, KWKWKW-NH2], the MIC [2] was >128 µM, the MIC [5] was 16 µM and the MIC [6] was 32 µM. It also gave an MIC [7] of 32 µM, an MIC [8] of 32 µM and an MIC [9] of 32 µM. The Hemolysis [10] was 0%.
With KWKWKWKWKW-NH2 [KW5] the MIC [2] was 8 µM, the MIC ([3]; CCARM 14007) was 16 µM and the MIC ([4]; CCARM 140020) was 8 µM. For the same molecule, the MIC [5] was 8 µM, the MIC [6] was 8 µM and the MIC [7] was 8 µM. The MIC [8] was 4 µM, the MIC [9] was 8 µM and the Hemolysis [10] was 71%.
Work on CC[C@H](C)[C@H](NC(=O)CN)C(=O)NCC(=O)N[C@@H](C)C(=O)N[C@H](C(=O)N[C@@H](CC(C)C)C(=O)N[C@@H](CCCCN)C(=O)N[C@H](C(=O)N[C@@H](CC(C)C)C(=O)N[C@H](C(=O)N[C@H](C(=O)NCC(=O)N[C@@H](CC(C)C)C(=O)N1CCC[C@H]1C(=O)N[C@@H](C)C(=O)N[C@@H](CC(C)C)C(=O)N[C@H](C(=O)N[C@@H](CO)C(=O)N[C@@H](Cc1c[nH]c2ccccc12)C(=O)N[C@H](C(=O)N[C@@H](CCCCN)C(=O)N[C@@H](CCCNC(=N)N)C(=O)N[C@@H](CCCCN)C(=O)N[C@@H](CCCNC(=N)N)C(=O)N[C@@H](CCC(N)=O)C(=O)N[C@@H](CCC(N)=O)C(N)=O)[C@@H](C)CC)[C@@H](C)CC)[C@@H](C)O)[C@@H](C)O)C(C)C)C(C)C [Melittin, melittin, reference compound] yielded an MIC ([1]; 2 × 10^4 cells/mL) of 4 µM, an MIC [2] of 16 µM (≈ 45.5 µg/mL) and an MIC ([3]; fluconazole-resistant strain CCARM 14007, 24 to 30 h, 28 °C) of 8 µM (≈ 22.8 µg/mL). For the same molecule, the MIC ([4]; fluconazole-resistant strain CCARM 140020, 24 to 30 h, 28 °C) was 8 µM (≈ 22.8 µg/mL), the MIC ([5]; C. catenulate) was 8 µM and the MIC ([6]; C. rugosa) was 8 µM. It also gave an MIC ([7]; C. melibiosica) of 8 µM, an MIC ([8]; C. glabrata) of 4 µM and an MIC ([9]; C. intermedia) of 8 µM. For the same molecule, the “Cytotoxicity against HaCaT cells” value ([11]; 12.5 μM) was 100%, the Cell survival ([11]; HaCaT cells, 200 µM peptide) was 0% and the “Calcein leakage from PC–CH–SM liposomes” value [12] was 90%. The “Calcein leakage from PE–PC–PI–ergosterol liposomes” value [13] was 80%, the “Time to complete membrane permeabilization (SYTOX green)” value [14] was ≤ 35 min and the “PI uptake seen by fluorescence microscopy” value [15] was “allowed the uptake of PI”.
In the case of “indolicidin (ILPWKWPWWPWRR; ends and bridges not checked; UniProt P33046 131-143, looked up) [AMP which can act intracellularly]”, the “RNA band shift in gel retardation” value [16] is reported as “did cause a similar band shift”.
For KWKWKWKW-NH2 [KW4], the MIC [2] was 32 µM, the MIC ([3]; CCARM 14007) was 32 µM and the MIC ([4]; CCARM 140020) was 32 µM. It also gave an MIC [5] of 8 µM, an MIC [6] of 8 µM and an MIC [7] of 8 µM. For the same molecule, the MIC [8] was 8 µM, the MIC [9] was 8 µM and the Hemolysis [10] was 8%. For the same molecule, the “Hemolytic activity” value [10] was “no hemolytic activity”.
For magainin II, the “RNA band shift in gel retardation” value [16] was “did not cause a band shift”.
